The values below come from patent publication US9617225B2 (VIROSTATICS SRL, priority 2012, dated 2017).

Counter-ions that a name gives are not always drawn. Like-named read-outs stand apart in the source and are kept apart here.

Data set [1] has as its target human CDK9/CyclinT kinase complex (Homo sapiens (Human), UniProt P50750). Briefly: In Vitro CDK9/CyclinT Assay (IMAP fluorescent polarization). It counts as biochemical. How it is done:
In Vitro CDK9/CyclinT Assay
The activity of the compounds described in the present invention can be determined by measuring the phosphorylation of a fluorescently-labeled peptide by human CDK9/CyclinT kinase complex by fluorescent polarization using a commercially available IMAP Screening Express Assay Kit (Molecular devices).
Test compounds were diluted in 100% DMSO to 5 mM stock concentration, then further dilutions were made in H2O or 100% DMSO to desirable concentrations. Each reaction consisted of 5 nM enzyme: CDK9/CyclinT (Proqinase cat#0371-0345-1), 400 nM TAMRA-Rbtide (synthetic 15-mer peptide derived from human retinoblastoma tumor suppressor protein labeled with TAMRA dye, Genecust Europe), 12 μM ATP (=Kmapp, Sigma-Aldrich) and kinase buffer: 20 mM MOPS pH 7 (Sigma-Aldrich), 1 mM DTT (Sigma-Aldrich), 10 mM MgCl2 (Sigma-Aldrich), 0.01% Tween 20 (Sigma-Aldrich).
For each reaction, 4 or 6 μl containing TAMRA-Rbtide, ATP and kianse buffer were combined with 2 μl diluted compound in H2O or 0.028 μl compound in 100% DMSO. The kinase reaction was started by the addition of 2 μl diluted enzyme. The reaction was allowed to run for 1 hour at room temperature. The reaction was stopped by adding 15 μl IMAP beads (1:400 beads in progressive (100% buffer A) 1× buffer).

Data set [2] concerns Primary T cells. Briefly: Cytotoxicity, viability by flow cytometry. It counts as cell-based. How it is done:
Primary T cells are cultured and treated with different concentrations of the test compound. Viability is analysed by measuring through flow cytometry based techniques the percentage of viable cells, compared to untreated control=100%).

Chain of human CDK9/CyclinT kinase complex (P50750 whole entry): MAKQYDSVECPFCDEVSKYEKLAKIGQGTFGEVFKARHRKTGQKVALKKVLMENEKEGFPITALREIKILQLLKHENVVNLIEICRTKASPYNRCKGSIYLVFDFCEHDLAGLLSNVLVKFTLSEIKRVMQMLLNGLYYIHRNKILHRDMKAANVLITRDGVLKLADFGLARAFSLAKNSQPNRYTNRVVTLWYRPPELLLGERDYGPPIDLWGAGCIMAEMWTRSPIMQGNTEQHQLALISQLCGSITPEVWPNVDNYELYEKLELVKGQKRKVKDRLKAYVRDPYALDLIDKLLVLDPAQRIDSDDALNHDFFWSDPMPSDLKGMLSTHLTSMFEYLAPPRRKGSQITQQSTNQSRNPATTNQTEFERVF
Chain of human CDK9/CyclinT kinase complex (O60563 whole entry partner): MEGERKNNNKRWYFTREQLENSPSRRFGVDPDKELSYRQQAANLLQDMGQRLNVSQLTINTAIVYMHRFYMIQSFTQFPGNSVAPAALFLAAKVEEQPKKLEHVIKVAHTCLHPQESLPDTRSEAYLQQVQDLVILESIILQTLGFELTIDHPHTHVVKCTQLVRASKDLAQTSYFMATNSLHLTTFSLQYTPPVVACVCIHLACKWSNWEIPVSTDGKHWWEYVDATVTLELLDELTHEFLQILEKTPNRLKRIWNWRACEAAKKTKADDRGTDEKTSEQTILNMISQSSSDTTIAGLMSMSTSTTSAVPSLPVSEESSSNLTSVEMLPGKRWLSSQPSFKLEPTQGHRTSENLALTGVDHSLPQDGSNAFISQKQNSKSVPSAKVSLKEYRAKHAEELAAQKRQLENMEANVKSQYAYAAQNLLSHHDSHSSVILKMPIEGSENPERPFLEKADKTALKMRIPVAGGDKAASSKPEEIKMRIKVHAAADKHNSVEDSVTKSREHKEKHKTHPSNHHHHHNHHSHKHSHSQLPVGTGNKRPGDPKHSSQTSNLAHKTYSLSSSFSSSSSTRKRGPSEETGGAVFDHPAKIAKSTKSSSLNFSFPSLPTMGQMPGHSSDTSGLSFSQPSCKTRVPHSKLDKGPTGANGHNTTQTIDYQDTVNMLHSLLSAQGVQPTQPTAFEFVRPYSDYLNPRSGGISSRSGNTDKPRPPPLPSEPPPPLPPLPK

`COc1ccc(Nc2cc(-c3ccccc3OC)ncn2)cc1CNCc1ccccc1` [Example 1, N-(3-((Benzylamino)methyl)-4-methoxyphenyl)-6-(2-methoxyphenyl)pyrimidin-4-amine] gave an IC50 in data set [1] of under 1 µM. Further, the “TD50” value in data set [2] is 3.5 µM.

As to `COc1ccc(Nc2cc(-c3ccccc3OC)ncn2)cc1NS(C)(=O)=O` [Example 9, N-(2-Methoxy-5-(6-(2-methoxyphenyl)pyrimidin-4-ylamino)phenyl)methanesulfonamide], the “TD50” value in data set [2] was over 1.5 µM.

In the case of `COc1ccccc1-c1cc(Nc2ccc(N3CCN(C)CC3)c(CO)c2)ncn1` [Example 17], the “TD50” value in data set [2] was over 0.5 µM.

`COc1ccc(Nc2cc(-c3ccccc3OC)ncn2)cc1CN(C)C` [Example 35, N-(3-((Dimethylamino)methyl)-4-methoxyphenyl)-6-(2-methoxyphenyl)pyrimidin-4-amine]: the “TD50” value in data set [2] is 3 µM.

Turning to `COc1ccc(F)cc1-c1cc(Nc2ccc(OC)c([N+](=O)[O-])c2)ncn1` [Example 74, [6-(5-Fluoro-2-methoxy-phenyl)-pyrimidin-4-yl]-(4-methoxy-3-nitro-phenyl)-amine], the IC50 in data set [1] (Table 1) is under 10 µM.

In data set [1] (Table 1), `COc1ccc(Nc2cc(-c3ccccc3Oc3ccccc3)ncn2)cc1[N+](=O)[O-]` [Example 76, (4-Methoxy-3-nitro-phenyl)-[6-(2-phenoxy-phenyl)-pyrimidin-4-yl]-amine] yielded an IC50 of over 10 µM.

`COc1ccc(Nc2cc(-c3ccccc3OC(C)C)ncn2)cc1[N+](=O)[O-]` [Example 78, [6-(2-Isopropoxy-phenyl)-pyrimidin-4-yl]-(4-methoxy-3-nitro-phenyl)-amine] registered an IC50 in data set [1] (Table 1) of under 10 µM.

With `COc1ccc(Nc2cc(-c3cccc(F)c3OC)ncn2)cc1[N+](=O)[O-]` [Example 80, [6-(3-Fluoro-2-methoxy-phenyl)-pyrimidin-4-yl]-(4-methoxy-3-nitro-phenyl)-amine], the concentration for half-maximal inhibition (IC50) in data set [1] (Table 1) was over 10 µM.

In turn, `COc1cc(F)c(F)cc1-c1cc(Nc2ccc(OC)c([N+](=O)[O-])c2)ncn1` [Example 82, [6-(4,5-Difluoro-2-methoxy-phenyl)-pyrimidin-4-yl]-(4-methoxy-3-nitro-phenyl)-amine] gave an IC50 in data set [1] (Table 1) of over 10 µM.

Take `COc1ccc(Nc2cc(-c3cc(F)c(F)cc3OC)ncn2)cc1NC=O` [Example 84, N-{5-[6-(4,5-Difluoro-2-methoxy-phenyl)-pyrimidin-4-ylamino]-2-methoxy-phenyl}-formamide]: the IC50 in data set [1] (Table 1) is under 1 µM.

`COc1ccc(Nc2cc(-c3ccc(F)cc3OC(C)C)ncn2)cc1[N+](=O)[O-]` [Example 85, [6-(4-Fluoro-2-isopropoxy-phenyl)-pyrimidin-4-yl]-(4-methoxy-3-nitro-phenyl)-amine]: the IC50 in data set [1] (Table 1) was under 1 µM.

Compound `COc1ccccc1-c1cc(Nc2cc(F)c(OC)c([N+](=O)[O-])c2)ncn1` [Example 87, (3-Fluoro-4-methoxy-5-nitro-phenyl)-[6-(2-methoxy-phenyl)-pyrimidin-4-yl]-amine] showed an IC50 in data set [1] (Table 1) of under 10 µM.

Compound `COc1ccc(F)cc1-c1cc(Nc2cc(N)c(OC)c(F)c2)ncn1` [Example 91, 5-Fluoro-N^1-[6-(5-fluoro-2-methoxy-phenyl)-pyrimidin-4-yl]-4-methoxy-benzene-1,3-diamine] yielded an IC50 in data set [1] (Table 1) of under 1 µM.

Turning to `COc1ccc(Nc2cc(-c3ccccc3OC)ncn2)cc1OC(C)=O` [Example 93, Acetic acid 2-methoxy-5-[6-(2-methoxy-phenyl)-pyrimidin-4-ylamino]-phenyl ester], in data set [1], the IC50 is under 1 µM.

In data set [1] (Table 1), `COc1ccc(Nc2cc(-c3ccccc3OC)ncn2)cc1OC(=O)N(C)C` [Example 94, Dimethyl-carbamic acid 2-methoxy-5-[6-(2-methoxy-phenyl)-pyrimidin-4-ylamino]-phenyl ester] returned an IC50 of under 1 µM.

In data set [1] (Table 1), `COC(=O)Oc1cc(Nc2cc(-c3ccccc3OC)ncn2)ccc1OC` [Example 95, Carbonic acid 2-methoxy-5-[6-(2-methoxy-phenyl)-pyrimidin-4-ylamino]-phenyl ester methyl ester] returned an IC50 of under 1 µM.

As for `COc1ccccc1-c1cc(Nc2ccc(Oc3ccccc3)c([N+](=O)[O-])c2)ncn1` [Example 96, [6-(2-Methoxy-phenyl)-pyrimidin-4-yl]-(3-nitro-4-phenoxy-phenyl)-amine], the IC50 in data set [1] is over 10 µM.

In turn, `COc1ccccc1-c1cc(Nc2ccc(Oc3ccccc3)c(N)c2)ncn1` [Example 97, N^1-[6-(2-Methoxy-phenyl)-pyrimidin-4-yl]-4-phenoxy-benzene-1,3-diamine] registered an IC50 in data set [1] (Table 1) of under 10 µM.

`COC(=O)N(C)c1cc(Nc2cc(-c3ccccc3OC)ncn2)ccc1OC` [Example 98, {2-Methoxy-5-[6-(2-methoxy-phenyl)-pyrimidin-4-ylamino]-phenyl}-methyl-carbamic acid methyl ester hydrochloride]: the IC50 in data set [1] is under 1 µM.

For the compound `CNc1cc(Nc2cc(-c3ccccc3OC)ncn2)ccc1OC` [Example 99, 4-Methoxy-N^1-[6-(2-methoxy-phenyl)-pyrimidin-4-yl]-N^3-methyl-benzene-1,3-diamine], the concentration for half-maximal inhibition (IC50) in data set [1] (Table 1) was under 1 µM.

For `CCOc1ccc(Nc2cc(-c3ccccc3OC)ncn2)cc1[N+](=O)[O-]` [Example 100, (4-Ethoxy-3-nitro-phenyl)-[6-(2-methoxy-phenyl)-pyrimidin-4-yl]-amine], the IC50 in data set [1] (Table 1) is under 10 µM.

Compound `COc1cc(F)ccc1-c1cc(Nc2ccc(F)c([N+](=O)[O-])c2)ncn1` [Example 102, [6-(4-Fluoro-2-methoxy-phenyl)-pyrimidin-4-yl]-(4-fluoro-3-nitro-phenyl)-amine] came in with an IC50 in data set [1] of under 10 µM.

Regarding `CCOc1ccc(Nc2cc(-c3ccc(F)cc3OC)ncn2)cc1[N+](=O)[O-]` [Example 103, (4-Ethoxy-3-nitro-phenyl)-[6-(4-fluoro-2-methoxy-phenyl)-pyrimidin-4-yl]-amine], the IC50 in data set [1] (Table 1) is under 1 µM.

Compound `COc1cc(F)ccc1-c1cc(Nc2ccc(F)c(N)c2)ncn1` [Example 104, 4-Fluoro-N^1-[6-(4-fluoro-2-methoxy-phenyl)-pyrimidin-4-yl]-benzene-1,3-diamine] returned an IC50 in data set [1] (Table 1) of under 1 µM.

For `COc1ccccc1-c1cc(Nc2ccc(N(C)C)c(O)c2)ncn1` [Example 108, 2-Dimethylamino-5-[6-(2-methoxy-phenyl)-pyrimidin-4-ylamino]-phenol], the IC50 in data set [1] was under 1 µM.

Consider `COc1ccccc1-c1cc(Nc2ccc(N(C)C)c(C(N)=O)c2)ncn1` [Example 109, 2-Dimethylamino-5-[6-(2-methoxy-phenyl)-pyrimidin-4-ylamino]-benzamide], for which the IC50 in data set [1] is under 1 µM.

For the compound `CCOc1ccc(Nc2cc(-c3ccccc3OC)ncn2)cc1O` [Example 110, 2-Ethoxy-5-[6-(2-methoxy-phenyl)-pyrimidin-4-ylamino]-phenol], in data set [1] (Table 1), the IC50 is under 1 µM.

`COc1cc(F)ccc1-c1cc(Nc2ccc(N(C)C)c(C(N)=O)c2)ncn1` [Example 113, 2-Dimethylamino-5-[6-(4-fluoro-2-methoxy-phenyl)-pyrimidin-4-ylamino]-benzamide] came in with an IC50 in data set [1] (Table 1) of under 0.1 µM.

`COc1ccc(Nc2cc(-c3ccccc3OC)ncn2)cc1Br` [Example 115, (3-Bromo-4-methoxy-phenyl)-[6-(2-methoxy-phenyl)-pyrimidin-4-yl]-amine] gave an IC50 in data set [1] of under 10 µM.

In data set [1] (Table 1), `COc1ccc(Nc2cc(-c3ccccc3OC)ncn2)cc1C1=CCNCC1` [Example 116, [6-(2-Methoxy-phenyl)-pyrimidin-4-yl]-[4-methoxy-3-(1,2,3,6-tetrahydro-pyridin-4-yl)-phenyl]-amine] yielded an IC50 of under 0.1 µM.

In the case of `COc1ccc(Nc2cc(-c3ccc(F)cc3OC)ncn2)cc1NC(N)=O` [Example 119, {5-[6-(4-Fluoro-2-methoxy-phenyl)-pyrimidin-4-ylamino]-2-methoxy-phenyl}-urea], the IC50 in data set [1] (Table 1) was under 1 µM.

As for `COc1cc(Nc2cc(-c3ccccc3OC)ncn2)ccc1OCc1ccccc1` [Example 120, (4-Benzyloxy-3-methoxy-phenyl)-[6-(2-methoxy-phenyl)-pyrimidin-4-yl]-amine], in data set [1], the IC50 is under 10 µM.

Take `COc1cc(Nc2cc(-c3ccccc3OC)ncn2)ccc1O` [Example 121, 2-Methoxy-4-[6-(2-methoxy-phenyl)-pyrimidin-4-ylamino]-phenol]: in data set [1] (Table 1), the IC50 is under 0.1 µM.

In data set [1] (Table 1), `CCOc1ccccc1-c1cc(Nc2ccc(OC)c(O)c2)ncn1` [Example 124, 5-[6-(2-Ethoxy-phenyl)-pyrimidin-4-ylamino]-2-methoxy-phenol] returned an IC50 of under 1 µM.

Turning to `COC(=O)Oc1cc(Nc2cc(-c3ccc(F)cc3OC)ncn2)ccc1OC` [Example 125, Carbonic acid 5-[6-(4-fluoro-2-methoxy-phenyl)-pyrimidin-4-ylamino]-2-methoxy-phenyl ester methyl ester], the IC50 in data set [1] (Table 1) is under 1 µM.

For `COc1cc(Nc2cc(-c3ccccc3OC)ncn2)ccc1C(=O)NCCO` [Example 135, N-(2-Hydroxy-ethyl)-2-methoxy-4-[6-(2-methoxy-phenyl)-pyrimidin-4-ylamino]-benzamide], the IC50 in data set [1] (Table 1) is under 1 µM.
